The supplement of paper PMC10307832

Assays:
[1] = compound: CC1=C(C(=NN1)C)CC2=C(C3=C(S2)N(C(=O)N(C3=O)C)CC(C)C)C(=O)N4C[C@@H](CO4)O + CC1(C)CCC(c2ccc(Cl)cc2)=C(CN2CCN(c3ccc(C(=O)NS(=O)(=O)c4ccc(N[C@H](CCN5CCOCC5)CSc5ccccc5)c(S(=O)(=O)C(F)(F)F)c4)cc3)CC2)C1 [Navitoclax] (partner 0.5 µM); experiment: relative viability (nuclei count vs DMSO), 5 days (fraction); higher = more cells survive
Method in brief: (§1)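 Relative viability was taken as the ratio of nuclei in treated wells to nuclei in vehicle wells. Lung cancer cell lines in 1536-well plates received compounds by pin tool one day after seeding, either one drug alone or a fixed anchor-drug dose plus five library-drug doses (not always all listed) in √10 steps. Nuclei were counted on 4× images after 5 days of treatment, and values are medians of duplicate plates.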

IDH-C35 + Foretinib = compound: Cc1ccccc1C(C(=O)NC1CCCCC1)N(C(=O)Cn1ccnc1C)c1cccc(F)c1 [IDH-C35] + COc1cc2c(Oc3ccc(NC(=O)C4(C(=O)Nc5ccc(F)cc5)CC4)cc3F)ccnc2cc1OCCCN1CCOCC1 [Foretinib] (partner 0.25 µM); experiment: as above
Method in brief: as §1

Row | Cell Line | relative viability ([1]; first compound 0.0025 µM) | relative viability ([1]; first compound 0.007906 µM) | relative viability ([1]; first compound 0.025 µM) | relative viability ([1]; first compound 0.07906 µM) | relative viability ([1]; first compound 0.25 µM) | relative viability (IDH-C35 + Foretinib; first compound 0.08 µM) | relative viability (IDH-C35 + Foretinib; first compound 0.253 µM) | relative viability (IDH-C35 + Foretinib; first compound 0.8 µM) | relative viability (IDH-C35 + Foretinib; first compound 2.53 µM) | relative viability (IDH-C35 + Foretinib; first compound 8 µM)
1 | PC-14 | 1.02 | 1.09 | 1.02 | 1 | 1.03 | 1.03 | 0.909 | 0.978 | 0.988 | 0.889
2 | NCI-H1437 | 1.16 | 1.2 | 1.08 | 1.1 | 1.09 | 1.29 | 1.28 | 1.25 | 1.29 | 1.23
3 | NCI-H460 | 1.19 | 1.26 | 0.994 | 1.13 | 1.34 | 1.02 | 1.01 | 1.02 | 0.989 | 0.904
4 | NCI-H1666 | 0.969 | 0.954 | 1.01 | 1.14 | 1.1 | 1.05 | 0.92 | 0.982 | 1.01 | 0.848
5 | NCI-H1651 | 1.11 | 1.06 | 1.01 | 0.912 | 1.05 | 0.858 | 0.809 | 0.732 | 0.822 | 0.79
6 | NCI-H1755 | 1.05 | 1.03 | 1 | 1 | 1.06 | 0.951 | 0.921 | 0.874 | 0.95 | 0.933
7 | HARA | 1.26 | 1.2 | 1.07 | 1.1 | 1.15 | 0.876 | 0.906 | 0.885 |  | 1.01
8 | NCI-H596 | 1.06 | 1.16 | 0.931 | 1.01 | 1.16 | 0.948 | 0.796 | 0.775 |  | 0.763
9 | NCI-H23 | 0.908 | 0.904 | 0.807 | 1.02 | 0.901 | 0.912 | 1.03 | 1.1 | 1.04 | 0.846
10 | A549 | 1.32 | 1.27 | 1.14 | 1.32 | 1.24 | 0.881 | 0.863 | 0.968 | 1.05 | 0.835
11 | LCLC-97TM1 | 0.394 | 0.613 | 0.404 | 0.373 | 0.467 | 0.921 | 0.865 | 0.947 | 1.02 | 0.954
12 | EPLC-272H | 1.17 | 1.26 | 1.07 | 1.08 | 1.28 | 0.659 | 0.828 | 0.751 | 0.71 | 0.733
13 | NCI-H1915 | 0.81 | 0.789 | 0.763 | 0.79 | 0.832 | 1.07 | 1.13 | 1.07 | 1.05 | 1.07
14 | NCI-H2405 | 0.795 | 0.652 |  | 0.983 | 0.864 | 1.04 | 1.04 | 1.06 | 1.14 | 1.05
15 | NCI-H322M | 1.22 | 1.18 | 1.18 | 1.29 | 1.06 | 0.93 | 0.886 | 0.945 | 0.916 | 0.983
16 | NCI-H2170 | 0.613 | 0.747 | 0.556 | 0.612 | 0.543 | 0.98 | 0.97 | 1.1 | 0.937 | 0.951
17 | NCI-H1395 | 1.09 | 0.931 | 1.01 | 0.859 | 0.886 | 0.972 | 0.976 | 1.07 | 0.896 | 0.971
18 | IA-LM | 0.738 | 0.796 | 0.912 | 0.784 | 0.722 | 1.06 | 1.24 | 1.12 | 1.12 | 1.1
19 | NCI-H838 | 1.22 | 1.24 | 1.12 | 1.16 | 1.25 | 1.07 | 0.991 | 0.95 | 0.998 | 1.03
20 | CAL-12T | 1.27 | 1.39 | 1.03 | 1.37 | 1.33 | 1.13 | 1.22 | 1.1 | 1.01 | 1.13
21 | EBC-1 | 0.473 | 0.426 | 0.485 | 0.498 | 0.494 | 0.0931 | 0.109 | 0.0986 | 0.108 | 0.109
